In this assay the target is T1, b-Raf (Homo sapiens, UniProt P15056, V600E).
T1 construct: endogenous in cells; host or cells: A2058 human melanoma cells
T1 sequence (P15056 whole entry V600E): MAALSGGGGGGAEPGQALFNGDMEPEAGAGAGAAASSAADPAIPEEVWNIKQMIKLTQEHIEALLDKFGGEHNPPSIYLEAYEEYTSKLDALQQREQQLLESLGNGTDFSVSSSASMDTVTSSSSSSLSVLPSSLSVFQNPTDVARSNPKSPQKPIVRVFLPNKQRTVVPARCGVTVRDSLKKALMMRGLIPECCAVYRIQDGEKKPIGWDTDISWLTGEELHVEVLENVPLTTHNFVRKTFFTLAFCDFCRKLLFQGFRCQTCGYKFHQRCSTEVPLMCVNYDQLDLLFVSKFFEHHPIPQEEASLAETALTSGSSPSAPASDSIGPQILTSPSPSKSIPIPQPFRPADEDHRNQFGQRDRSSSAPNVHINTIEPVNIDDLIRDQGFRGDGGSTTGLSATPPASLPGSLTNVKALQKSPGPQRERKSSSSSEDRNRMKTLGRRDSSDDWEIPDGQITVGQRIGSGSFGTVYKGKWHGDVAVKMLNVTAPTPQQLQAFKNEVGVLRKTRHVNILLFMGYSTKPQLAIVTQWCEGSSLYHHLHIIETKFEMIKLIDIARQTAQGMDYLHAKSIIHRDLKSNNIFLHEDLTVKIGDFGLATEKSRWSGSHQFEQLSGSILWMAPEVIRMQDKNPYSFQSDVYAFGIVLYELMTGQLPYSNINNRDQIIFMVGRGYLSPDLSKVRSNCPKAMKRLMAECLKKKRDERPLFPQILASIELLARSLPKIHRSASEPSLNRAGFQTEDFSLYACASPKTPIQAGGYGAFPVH
Put plainly: Raf cellular assay (phospho-Mek1/2 ELISA in A2058 cells). The conditions noted are these: Table 3; human melanoma A2058 cells (b-Raf mutation), Mek1/2 Ser217/221 phosphorylation, 1 hour incubation; read-out: pMEK IC50. The class given is cell-based. Summed up: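 A2058 melanoma cells (B-Raf mutant), seeded overnight in 10% FBS DMEM, were exposed to compounds (11-point 1:3 series, duplicate) for 1 h at 37 °C. Lysates were captured on anti-Mek1-coated plates and Mek1/2 Ser217/221 phosphorylation was read by anti-phospho-Mek1/2 ELISA, HRP/TMB, 450 nm.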
For orientation: In an ELISA, binding on a coated surface is turned into a signal by an enzyme label.
Take `C[C@H](O)CNc1nccc(-c2cn(CC(F)F)nc2-c2cnc3ccn(C)c3c2)n1` [Example B-35, (2S)-1-({4-[1-(2,2-difluoroethyl)-3-(1-methyl-1H-pyrrolo[3,2-b]pyridin-6-yl)-1H-pyrazol-4-yl]pyrimidin-2-yl}amino)propan-2-ol]: the half-maximal inhibitory concentration (IC50) was 193 nM.

In the case of `C[C@H](O)CNc1nccc(-c2cn(C3CC(F)(F)C3)nc2-c2cnc3[nH]cc(Cl)c3c2)n1` [Example B-17, (2S)-1-({4-[3-(3-chloro-1H-pyrrolo[2,3-b]pyridin-5-yl)-1-(3,3-difluorocyclobutyl)-1H-pyrazol-4-yl]pyrimidin-2-yl}amino)propan-2-ol], the concentration for half-maximal inhibition (IC50) stood at 61.9 nM.

Consider `CC(C)n1cc(-c2ccnc(NC[C@H](C)O)n2)c(-c2cnc(N)nc2)n1` [Example B-42, (2S)-1-({4-[3-(2-aminopyrimidin-5-yl)-1-isopropyl-1H-pyrazol-4-yl]pyrimidin-2-yl}amino)propan-2-ol], for which the concentration for half-maximal inhibition (IC50) was 5650 nM.

Turning to `Cc1ccc(-c2nn(CC(F)F)cc2-c2ccnc(NCCC#N)n2)cn1` [Example B-28, 3-({4-[1-(2,2-difluoroethyl)-3-(6-methylpyridin-3-yl)-1H-pyrazol-4-yl]pyrimidin-2-yl}amino)propanenitrile], the half-inhibitory concentration (IC50) stood at 538 nM.

As to `Cn1ccc2ncc(-c3nn(C(C)(C)CO)cc3-c3ccnc(NCCC#N)n3)cc21` [Example B-37, 3-({4-[1-(2-hydroxy-1,1-dimethylethyl)-3-(1-methyl-1H-pyrrolo[3,2-b]pyridin-6-yl)-1H-pyrazol-4-yl]pyrimidin-2-yl}amino)propanenitrile], the IC50 came out at 44 nM.

As for `CC1CNc2ncc(-c3nn(CC(F)F)cc3-c3ccnc(NC[C@H](C)O)n3)cc21` (stereo partly drawn) [Example B-87, (2S)-1-(4-(1-(2,2-difluoroethyl)-3-(3-methyl-2,3-dihydro-1H-pyrrolo[2,3-b]pyridin-5-yl)-1H-pyrazol-4-yl)pyrimidin-2-ylamino)propan-2-ol], the IC50 came to 510 nM.

For `COc1cc(-c2nn(C(C)C)cc2-c2ccnc(NC[C@H](C)O)n2)cnc1N` [Example B-111, (2S)-1-({4-[3-(6-amino-5-methoxypyridin-3-yl)-1-isopropyl-1H-pyrazol-4-yl]pyrimidin-2-yl}amino)propan-2-ol], the IC50 turned out to be 6.13 nM.

In general, IC50 refers to the concentration needed to halve the response being measured.
